{"source": "patent US7592140B2", "about": "“2′, 5′-oligoadenylate phosphodiesterase” (priority 2002, dated 2009)", "key": {"PC-3 cells": {"system": "PC-3 cells", "assay": "Cell viability of PC-3 cells (Alamar Blue)", "type": "cell-based, human", "conditions": "host PC-3 cells, cultured for 3 days"}, "[1]": {"system": "2′-PDE stable expression strains #6 and #10", "assay": "Cell viability of 2′-PDE stable expression strains of PC-3 (Alamar Blue)", "type": "cell-based, human", "conditions": "cultured for 3 days"}, "Vaccinia virus WR strain": {"system": "Vaccinia virus WR strain", "type": "cell-based"}, "[2]": {"assay": "Solubility (physicochemical properties)"}, "recombinant human 2′-PDE [3]": {"target": "T1, recombinant human 2′-PDE (Homo sapiens, UniProt Q6L8Q7)", "T1 sequence (Q6L8Q7 43-609)": "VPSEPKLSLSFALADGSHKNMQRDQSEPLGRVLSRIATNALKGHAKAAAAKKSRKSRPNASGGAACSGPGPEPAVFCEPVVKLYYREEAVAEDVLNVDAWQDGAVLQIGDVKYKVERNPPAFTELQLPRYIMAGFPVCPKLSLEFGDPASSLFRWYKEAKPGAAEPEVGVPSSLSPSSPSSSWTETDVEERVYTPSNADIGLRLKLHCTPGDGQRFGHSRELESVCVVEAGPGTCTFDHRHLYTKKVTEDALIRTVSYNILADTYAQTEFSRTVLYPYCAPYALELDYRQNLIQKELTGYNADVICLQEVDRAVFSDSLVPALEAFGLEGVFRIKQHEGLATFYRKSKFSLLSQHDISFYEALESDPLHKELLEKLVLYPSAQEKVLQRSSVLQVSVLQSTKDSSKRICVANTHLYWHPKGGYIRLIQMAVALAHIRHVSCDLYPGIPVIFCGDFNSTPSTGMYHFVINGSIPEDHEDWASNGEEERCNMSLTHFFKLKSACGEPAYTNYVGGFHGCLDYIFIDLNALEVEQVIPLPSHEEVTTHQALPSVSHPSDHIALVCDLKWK", "assay": "Inhibition of recombinant human 2′-PDE activity (HPLC measurement of substrate reduction)", "type": "biochemical", "set-up": "His6 (histidine hexamer) (C); made in house; nickel-chelate partial purification", "conditions": "substrate 0.75 mM adenylyl(2′-5′)adenosine, 37° C. for 60 min; read-out: 50% inhibition concentration (converted)", "method": "To 10 μl of the partially purified human 2′-PDE enzyme solution obtained in part 1) of Production Example 1, were added 80 μl of Buffer 7 containing 0.75 mM adenylyl(2′-5′)adenosine as the substrate and 10 μl of a solution of the A-74528 compound dissolved in dimethyl sulphoxide. Then the mixture was incubated at 37° C. for 60 min. and the enzyme was inactivated by addition of 200 μl of methanol. Ten μl of the sample obtained, after insoluble matter was removed using a 0.45 μm filter, was subjected to a reversed phase column (Inertsil ODS-2, 5 μm: diameter 4.6 mm×150 mm: manufactured by GL Science), equilibrated beforehand with Buffer 17 [50 mM ammonium acetate (pH 5.0), 5% (V/V) acetonitrile]. Liquid chromatography was performed at a flow rate of 1 ml/min. at 40° C., and the eluate was monitored at a wavelength of 260 nm. The elution was conducted as an isocratic elution. Using a standard material for the substrate, a conversion formula for obtaining the substrate amount based on the peak area was prepared. Based on the conversion formula, the reduction in the amount of the substrate was calculated from the substrate peak area when the diluted enzyme solution was added, which was regarded as the amount of the enzyme reaction product."}, "[4]": {"system": "2′-PDE purified by Johnston et al.", "conditions": "value obtained by Johnston et al.; activity with A2′pA defined as 1; cited from earlier work"}, "recombinant human 2′-PDE [5]": {"target": "T1, recombinant human 2′-PDE", "assay": "Substrate specificity of recombinant human 2′-PDE (HPLC)", "type": "biochemical", "set-up": "His6 (histidine hexamer) (C); made in house; host or cells: COS-1 cells (monkey kidney), transient transfection with pEF6/KUBO#002/11-1; nickel-chelate partial purification", "conditions": "relative to adenylyl(2′-5′)adenosine defined as one; 150 μM substrate, 37° C. for 60 min"}}}
{"molecule": "interferon-α", "values": [{"measurement": "suppression of cell viability", "setting": "PC-3 cells", "result": "suppressed the viability of PC-3 cells in a concentration-dependent manner"}, {"measurement": "cell proliferation suppression activity compared with host PC-3 cells", "setting": "[1]", "result": "attenuated"}]}
{"molecule": "CC1c2c(O)cc(O)c3c2C2C(CC(O)=C4C(=O)c5c(O)cc(O)cc5C(C3=O)C42Cc2cc(O)cc(=O)o2)C1O", "note": "(stereo not shown) [A-74528]", "values": [{"measurement": "effect on viral replication-suppression activity of interferon-α", "setting": "Vaccinia virus WR strain", "result": "enhanced the viral replication-suppression activity of interferon-α"}, {"measurement": "viral replication-suppression activity", "setting": "Vaccinia virus WR strain", "result": "exhibited a viral replication-suppression activity in a concentration-dependent manner"}, {"measurement": "solubility", "setting": "[2]", "result": "soluble in methanol and dimethyl sulphoxide"}, {"measurement": "IC50", "setting": "recombinant human 2′-PDE [3]", "result": 60.7, "unit": "µM"}]}
{"molecule": "Nc1ncnc2c1ncn2[C@@H]1O[C@H](COP(=O)(O)O[C@H]2[C@@H](O)[C@H](n3cnc4c(N)ncnc43)O[C@@H]2COP(=O)(O)O[C@H]2[C@@H](O)[C@H](n3cnc4c(N)ncnc43)O[C@@H]2CO)[C@@H](O)[C@H]1O", "note": "[adenylyl(3′-5′)adenylyl(3′-5′)adenosine]", "values": [{"measurement": "relative cleavage efficiency", "setting": "[4]", "result": 163}, {"measurement": "relative cleavage efficiency", "setting": "recombinant human 2′-PDE [5]", "result": 1.1}]}
{"molecule": "interferon-γ (protein, UniProt P01579 24-161, looked up) Interferon gamma: QDPYVKEAENLKKYFNAGHSDVADNGTLFLGILKNWKEESDRKIMQSQIVSFYFKLFKNFKDDQSIQKSVETIKEDMNVKFFNSNKKKRDDFEKLTNYSVTDLNVQRKAIHELIQVMAELSPAAKTGKRKRSQMLFRG", "values": [{"measurement": "suppression of cell viability", "setting": "PC-3 cells", "result": "suppressed the viability of PC-3 cells in a concentration-dependent manner"}, {"measurement": "cell proliferation suppression activity compared with host PC-3 cells", "setting": "[1]", "result": "attenuated"}]}
